Measured values published in patent EP1927378A1, “Hair-treatment compositions comprising quercetin and use thereof to revitalize hair” (Henkel Kommanditgesellschaft auf Aktien, priority 2006, dated 2008).

Assays:
Assay type in all cases: cell-based
[1] = tested on: hHa3-I; test: Hair keratin expression by quantitative real-time PCR in organotypic cell cultures: hHa3-I; settings: 88 µM, 24 h after application
Source text: (§1) Hepatocyte Growth Factor (HGF) und Keratinocyte Growth Factor (KGF) sind wichtige Wachstumsfaktoren, die von den dermalen Papillenzellen synthetisiert werden. Im Speziellen stimuliert HGF das Follikelwachstum und KGF die Keratinozytenproliferation. Entsprechend werden HGF und KGF in der Wachstumsphase vermehrt exprimiert. Diesen Eigenschaften gegenüber steht die Expression von IGFBP-3. Dieses Genprodukt führen zu einer Verschiebung des Zyklus von der Wachstums- zur Regressionsphase. […] Die differentielle Genexpression wurde mittels quantitatitiver RT-PCR (Reverse-Transkription Polymerase Kettenreaktion) bestimmt. […] Zur Quantifizierung der Genexpression wird die unbehandelte Kontrolle gleich 1 gesetzt und die Expression der zu bestimmenden Gene darauf bezogen (x-fache Expression). […]
(§2) Die Festigkeit der Haare und die Haarstruktur ist im Wesentlichen von der Zusammensetzung spezieller haarspezifischer Strukturproteine abhängig, den Haarkeratinen. […] Die Expression verschiedener Haarkeratine organotypischen Modellen kann mit Hilfe des in Beispiel 8 beschriebenen quantitativen Real-Time-PCR-Verfahrens untersucht werden. Zur Quantifizierung der Genexpression wird die Lösungsmittelkontrolle gleich 1 gesetzt und die Expression der zu bestimmenden Gene darauf bezogen (x-fache Expression). […]

[2] = tested on: HGF; test: Differential gene expression by quantitative RT-PCR in dermal papilla cells: HGF; settings: for Expression HGF, Mittelwert: 24 h, untreated control = 1, spread in brackets
Source text: (§3) Hepatocyte Growth Factor (HGF) und Keratinocyte Growth Factor (KGF) sind wichtige Wachstumsfaktoren, die von den dermalen Papillenzellen synthetisiert werden. Im Speziellen stimuliert HGF das Follikelwachstum und KGF die Keratinozytenproliferation. Entsprechend werden HGF und KGF in der Wachstumsphase vermehrt exprimiert. Diesen Eigenschaften gegenüber steht die Expression von IGFBP-3. Dieses Genprodukt führen zu einer Verschiebung des Zyklus von der Wachstums- zur Regressionsphase. Nach Applikation von Substanzen, die Effekte am biologisch aktiven Teil des Haares hervorrufen, könnte die Bestimmung der Veränderungen der Expression dieser Gene Aussagen über Haarwuchsstimulantien oder -inhibitoren liefern. Die differentielle Genexpression wurde mittels quantitatitiver RT-PCR (Reverse-Transkription Polymerase Kettenreaktion) bestimmt. Nach Anzucht der dermalen Papillenzellen wurden diese für 24 h mit Dihydroquercetin in der Konzentration von 8,8 und 88 µM (entspricht Extrakt der Sibirischen Lerche von 0,003% und 0,0003%) inkubiert. Zur Durchführung der PCR wird zunächst mit Hilfe des RNeasy Mini Kits der Fa. Qiagen die RNA aus den dermalen Papillenzellen isoliert und mittels reverser Transkription in cDNA umgeschrieben. Bei der anschließenden PCR Reaktion, die mit Hilfe genspezifischer Primer für die jeweiligen haarrelevanten Gene durchgeführt wird und die der Amplifikation der gesuchten Genabschnitte dient, wird die Bildung der PCR-Produkte online über ein Fluoreszenzsignal detektiert. Das Fluoreszenzsignal ist dabei proportional zur Menge des gebildeten PCR-Produktes. Je stärker die Expression eines bestimmten Gens ist, desto größer ist die Menge an gebildetem PCR-Produkt und um so höher ist das Fluoreszenzsignal. Zur Quantifizierung der Genexpression wird die unbehandelte Kontrolle gleich 1 gesetzt und die Expression der zu bestimmenden Gene darauf bezogen (x-fache Expression). Dabei werden Werte, die größer/gleich der 2fachen Expression oder kleiner/gleich der 0.5fachen Expression der unbehandelten Kontrolle sind als signifikant differentiell exprimiert eingestuft. […]

[3] = tested on: KGF; test: KGF release into medium (ELISA) from organotypic hair follicle cell cultures; settings: 88 µM
Source text: (§4) Hepatocyte Growth Factor (HGF) und Keratinocyte Growth Factor (KGF) sind wichtige Wachstumsfaktoren, die von der dermalen Papille ausgeschüttet werden, um die Proliferation der Haarschaftkeratinozyten, die für die Synthese der Haarkeratine verantwortlich sind, zu steuern. Sie sind außerdem charakteristische Marker für die Anagenphase, in der auch die Keratinsynthese maximal ist. Darüber hinaus ist zu beachten, dass bei der Haaralterung das Proliferationsvermögen der Haarfollikelzellen abnimmt. Die Ausschüttung von HGF sowie KGF kann mit Hilfe von kommerziell erhältlichen ELISA-Kits quantifiziert werden. Dazu werden organotypische Haarfollikelzellkulturen über 72h mit Dihydroquercetin in der Konzentration 88 µM (entspricht Extrakt der Sibirischen Lerche von 0,003%) inkubiert und die Konzentration der Wachstumsfaktoren im Medium in beschriebener Weise bestimmt. Tabelle 4: Relative Ausschüttung von HGF und KGF in [%] nach Behandlung von organotypischen Haarfollikelzellkulturen im Vergleich zu unbehandelten Kontrollen.

[4] = tested on: hHa4; test: Hair keratin expression by quantitative real-time PCR in organotypic cell cultures: hHa4; settings: 88 µM, 24 h after application
Source text: as §1, §2

[5] = tested on: "Outer Root Sheath" Keratinozyten; test: Layer thickness of ORS keratinocytes in organotypic cell culture model (histology); settings: 88 µM, 72 h
Source text: Physiologische Effekte der Behandlung mit potentiellen Wirkstoffen hinsichtlich einer Verdickung des Haares kann anhand einer Steigerung der Schichtdicke der "Outer Root Sheath" Keratinozyten im organotypischen Zellkulturmodell bestimmt werden. Dazu werden jeweils drei Modelle nach 72 stündiger Inkubation mit Wirkstoff oder mit Referrenzmedium histologisch analysiert: Fixation in 4 % Paraformaldehyd, Färbung mittels Propidiumiodid und mikroskopische Analyse. Im Folgenden wird die Dicke der ORS Keratinozytenschicht des organptypischen Modells randomisiert vermessen und die Ergebnisse werden in Relation zur unbehandelten Kontrolle dargestellt. Tabelle 5: Steigerung der Schichtdicke nach Behandlung der organptypischen Zellkultur mit Dihydroquercetin in der Konzentration von 88 µM (entspricht Extrakt der Sibirischen Lerche von 0,003%) in % im Vergleich zur unbehandelte Probe

[6] = tested on: organotypischen Zellkulturen; test: ATP production (ATPLite-M luminescence assay) in organotypic cell cultures; settings: 24 h
Source text: ATP (Adenosintriphosphat) ist die universelle Speicherform für chemische Energie in Zellen. Bei der Abspaltung der distalen Phosphatgruppe entsteht ADP und Pi (anorganisches Phosphat). Diese Reaktion ist stark exergon, d.h. es wird Energie frei. Produziert wird ATP beim zellulären, oxidativen Abbau von Fetten, Kohlehydraten und Proteinen. Es dient als Energielieferant für biochemische Synthesen, für Transportvorgänge (aktiver Transport) und für mechanische Arbeit. Diese Vorgänge sind endergon, d.h. sie laufen nur unter Energiezufuhr ab. Um ihren Stoffwechsel optimal aufrecht zu erhalten, sind Zellen also auf eine ausreichende Versorgung mit ATP angewiesen. Auch dermale Papillenzellen benötigen beispielsweise zur Produktion von Wachstumsfaktoren und damit zur Steuerung des Haarzyklus ATP. Die Proliferation und Differenzierung von Haarschaftkeratinozyten ist ebenfalls an die ATP-Synthese gekoppelt, da für beide Vorgänge die Biosynthese spezifischer Proteine essentielle Voraussetzung ist. Kann durch ein Produkt die ATP-Syntheserate der haarrelevanten Zellen erhöht werden, so steht den Zellen mehr Energie zur Verfügung um Stoffwechselvorgänge und zelluläre Strukturen aufrecht zu erhalten, und um Strukturen zu erneuern, z.B. bei Reparaturprozessen oder dem Neuaufbau von Haaren.
Die ATP-Bestimmungen erfolgten mit Hilfe des ATPLiteTM-M Assays (Packard). […]

[7] = tested on: IGFBP3; test: Differential gene expression by quantitative RT-PCR in dermal papilla cells: IGFBP3; settings: for Expression IGFBP3, Mittelwert: 24 h, untreated control = 1, spread in brackets
Source text: as §3

[8] = tested on: KGF; test: KGF release into medium (ELISA) from dermal papilla cells; settings: for Relative Ausschüttung von KGF, Mittelwert [%]: 24 h, untreated sample = 100, spread in brackets
Description: Der Keratinozyten Wachstumsfaktor Factor (KGF) ist ein äußerst wichtiger Regulator des Haars. Bei einer potentiell wachstumsfördernden und das Haar stärkenden Aktivsubstanz kann von einer Steigerung der ins Medium ausgeschütteten Faktoren ausgegangen werden. Die Ausschüttung von KGF kann mit Hilfe von kommerziell erhältlichen ELISA-Kits quantifiziert werden. Dazu wurden die dermalen Papillenzellen über 24 Stunden mit Dihydroquercetin in der Konzentration von 8,8 und 88 µM (entspricht Extrakt der Sibirischen Lerche von 0,003% und 0,0003%) inkubiert und die Konzentration des Wachstumsfaktors im Medium in beschriebener Weise quantifiziert. Tabelle 3: Relative Ausschüttung von KGF in [%] nach Behandlung der dermalen Papillenzellen im Vergleich zur unbehandelten Probe.

[9] = tested on: HGF; test: HGF release into medium (ELISA) from organotypic hair follicle cell cultures; settings: 88 µM
Source text: as §4

[10] = tested on: KGF; test: Differential gene expression by quantitative RT-PCR in dermal papilla cells: KGF; settings: for Expression KGF, Mittelwert: 24 h, untreated control = 1, spread in brackets
Source text: as §3

[11] = control = 1, spread in brackets
[12] = dermal papilla cells, 24 h treatment
[13] = organotypic hair follicle cell cultures, 72 h, untreated control = 100, spread in brackets

## O=C1c2c(O)cc(O)cc2OC(c2ccc(O)c(O)c2)C1O (stereo not drawn) [Dihydroquercetin, 2-(3.4-dihyrdroxy-phenyl)-3 5 7-trihydroxy-chroman-4-one]
[1]
  Keratinexpression hHa3-I (result in words): Steigerung der Keratinexpression
[1]; [11]
  Haarkeratinexpression hHa3-I: 4,1 (1,5) x-fache Expression
[2]; dermal papilla cells, 88 µM
  Expression HGF, Mittelwert: 3,62(2,11) x-fache Expression
[2]; dermal papilla cells, 8,8 µM
  Expression HGF, Mittelwert: 2,90 (1,18) x-fache Expression
[2]; [12]
  Genexpression von HGF (result in words): tendenziell
[3]; [13]
  Relative Ausschüttung von KGF, Mittelwert [%]: 126 (7) %
[3]; organotypic hair model
  Freisetzung von KGF (result in words): Aktivierung der Freisetzung
[4]
  Keratinexpression hHa4 (result in words): Steigerung der Keratinexpression
[4]; [11]
  Haarkeratinexpression hHa4: 4,1 (1,6) x-fache Expression
[5]; called tendential
  Steigerung der ORS Keratinozytenschichtdicke: 11%
[5]; control = 100, spread in brackets
  Schichtdicke in % im Vergleich zur unbehandelte Probe, Mittelwert: 111 (4) %
[6]; 88 µM (= 0,003% Extrakt der Sibirischen Lerche), untreated sample = 100
  ATP-Produktion von organotypischen Zellkulturen in %, Mittelwert (Standardabweichung): 138 (10) %
[6]; organotypic cell cultures, 88 µM
  Steigerung der ATP-Produktion gegenüber der unbehandelten Kontrolle: 38%
[7]; dermal papilla cells, 88 µM
  Expression IGFBP3, Mittelwert: 0,63(0,13) x-fache Expression
[7]; dermal papilla cells, 8,8 µM
  Expression IGFBP3, Mittelwert: 0,72 (0,04) x-fache Expression
[7]; [12]
  Genexpression von IGFBP-3 (result in words): tendenziellen verminderten Expression
[8]; dermal papilla cells, 88 µM
  Relative Ausschüttung von KGF, Mittelwert [%]: 176 (16,7) %
[8]; dermal papilla cells, 8,8 µM
  Relative Ausschüttung von KGF, Mittelwert [%]: 173 (17,6) %
[8]; dermal papilla cells, 8,8 and 88 µM
  Freisetzung von KGF (result in words): signifikant erhöhten Freisetzung
[9]; [13]
  Relative Ausschüttung von HGF, Mittelwert [%]: 142 (15) %
[9]; organotypic hair model
  Freisetzung des Hepatozyten Wachstumsfaktor (HGF) (result in words): erhöhte Freisetzung
[10]; dermal papilla cells, 88 µM
  Expression KGF, Mittelwert: 2,18 (0,27) x-fache Expression
[10]; dermal papilla cells, 8,8 µM
  Expression KGF, Mittelwert: 2,71 (0,36) x-fache Expression
[10]; [12]
  Genexpression von KGF (result in words): signifikanten Induktion
